Results: patent US8933099B2, “Monocyclic pyridine derivative” (Eisai R&D Management Co., Ltd., priority 2013, dated 2015)

Experiments:
[1] = system: human endometrial cancer cell line MFE296 xenograft; assay: Antitumor effect in MFE296 subcutaneous xenograft model in mice; type: in vivo; settings: oral, once a day for 14 days, tumor volume last day
Source text: Human endometrial cancer cell line MFE296 (DSMZ Number ACC-419), which had been cultured in an RPMI-1640 medium containing 10% FBS, and penicillin and streptomycin, were adjusted to a concentration of 1×10^8 cells/mL with Hanks' Balanced Salt Solution (GIBCO #24020) to prepare a cell suspension, and the suspension was mixed with […] (BD Biosciences, Cat#354234) in a ratio of 1:1 to prepare a cell suspension in a concentration of 5×10^7 cells/ml. The suspension was inoculated in a volume of 100 μL into a subcutaneous part of a right flank of nude mice, 7 weeks of age (BALB/cAJcl-nu/nu, female, Clea Japan Inc.). Twelve days after cell inoculation, the shortest diameter and the longest diameter of a tumor in each mouse were measured by using an electronic digital caliper (Digimatic™ caliper, Mitutoyo Corporation), so as to calculate the volume of the tumor in accordance with the following calculation formula: Tumor volume(mm^3)=Longest diameter(mm)×Shortest diameter(mm)×Shortest diameter(mm)/2
On the basis of the volumes of tumors obtained on the first day of administration, the nude mice were grouped such that averages of the tumor volumes were substantially equal among the groups. Each test substance was dissolved in DMSO, Tween 80 was added thereto to prepare a solution in a 10-fold concentration and the thus prepared solution was stored at the freezer before use. Immediately before the administration, the stock solution was diluted with a 5% glucose solution to obtain a final administration solution (in which a ratio in % among DMSO, Tween 80 and the 5% glucose solution was 3.5:6.5:90). Each evaluation sample was orally administered to test substance administration group at a volume of 0.4 mL per 20 g of body weight once a day continuously for 14 days, and in a control group, an administration solvent was orally administered under the same conditions. Incidentally, the experiment was conducted on groups each consisting of 5 mice.
With respect to each of the control group and test substance administration group, a ratio of the weight measured on the final day to the weight measured on the first day (relative body weight: RBW) was calculated. If a ratio of the RBW of the test substance administration group/the RBW of the control group is 0.9 or more, the corresponding test substance administration group was defined as a well-tolerated. In the test substance administration group thus defined as well-tolerated, a ratio of the tumor volume of the test substance-dosing group to the tumor volume of the control group obtained on the last day (TIC) (%) was calculated, and shown in Table 27.

[2] = system: cell line RT112/84 xenograft; assay: Antitumor effect in RT112/84 subcutaneous xenograft model in mice; type: in vivo; settings: oral, once a day for 14 days, tumor volume last day
Source text: Human […] cancer cell line RT112/84 (ECACC Number EC85061106-F0), which had been cultured in an RPMI-1640 medium containing 10% […], and penicillin and streptomycin, were adjusted to a concentration of 1×10^8 cells/mL with Hanks' Balanced Salt Solution (GIBCO 1424020) to prepare a cell suspension, and the suspension was mixed with […] (BD Biosciences, Cat/354234) in a ratio of 1:1 to prepare a cell suspension in a concentration of 5×10^7 cells/ml. The cell suspension was inoculated in a volume of 100 μL into a subcutaneous part of a right flank of nude mice, 7 weeks of age (BALB/cAJcl-nu/nu, female, Clea Japan Inc.). Ten days after cell inoculation, the shortest diameter and the longest diameter of a tumor in each mouse were measured by using an electronic digital caliper (Digimatic™ caliper, Mitutoyo Corporation), so as to calculate the volume of the tumor in accordance with the following calculation formula: Tumor volume(mm^3)=Longest diameter(mm)×Shortest diameter(mm)×Shortest diameter(mm)/2 […]
With respect to each of the control group and test substance administration group, a ratio of the weight measured on the final day to the weight measured on the first day (relative body weight: RBW) was calculated. […]

CNC(=O)n1ccc2cc(Oc3ccnc(NC(=O)c4ccc(C5CCN(CCO)CC5)cc4)c3)c(OCCOC)cc21 [Example 22, 5-((2-(4-(1-(2-Hydroxyethyl)piperidin-4-yl)benzamide)pyridin-4-yl)oxy)-6-(2-methoxyethoxy)-N-methyl-1H-indole-1-carboxamide]
T/C (%) ([1]; 6.25 mg/kg): 91% | T/C (%) ([1]; 12.5 mg/kg): 85% | T/C (%) ([1]; 25 mg/kg): 60% | T/C (%) ([1]; 50 mg/kg): 54% | T/C (%) ([2]; 25 mg/kg): 62% | T/C (%) ([2]; 50 mg/kg): 33%
